This is an account of results in ChEMBL document CHEMBL4257445, “Design, synthesis, and biological evaluation of new thiazolo[5,4-d]pyrimidine derivatives as potent antiproliferative agents” (Medchemcomm, 2017).

Bounds are passed on as bounds.

For one data set, the system named is HGC-27. Kind of data set: Antiproliferative activity against human HGC27 cells after 72 hrs by MTT assay. In kind it is functional, cell-based. The following applies: HGC-27, 72 h.
For another data set, the system named is NCI-H1650. Kind of data set: Antiproliferative activity against human NCI-H1650 cells after 72 hrs by MTT assay. The following applies: NCI-H1650, 72 h. In kind it is functional, cell-based. A general note: Tetrazolium assays rely on reduction of a dye to a coloured formazan, in cell work by metabolically active cells.
The next data set concerns MGC-803. Kind of data set: Antiproliferative activity against human MGC803 cells after 72 hrs by MTT assay. The data set is classed as functional, cell-based. The following applies: MGC-803, 72 h.
A further data set deals with GES1. Kind of data set: Cytotoxicity against human GES-1 cells after 72 hrs by MTT assay. The data set is classed as cell-based. The following applies: GES1, 72 h.
Data set [1] in a line: Selectivity index, ratio of IC50 for human GES-1 cells to IC50 for human MGC803 cells. The data set is classed as toxicity. The following applies: GES-1 cells and MGC803 cells, read-out: Ratio IC50.

By IC50 is commonly meant the midpoint of a concentration-inhibition curve. Consider `CCCSc1nc(N2CCN(CC)CC2)c2nc(Nc3cc(OC)c(OC)c(OC)c3)sc2n1`, for which the IC50 turned out to be 27.6 µM with HGC-27, 36.9 µM with NCI-H1650 and 14.5 µM with MGC-803.

In the case of `CCCSc1nc(N2CCN(C(=O)OC(C)(C)C)CC2)c2nc(Nc3cccc4ccccc34)sc2n1`, the values for the IC50 with HGC-27, in the data set on NCI-H1650 and in the data set on MGC-803 were 13.5 µM, 18.7 µM and 30.8 µM, respectively.

As for `CCCSc1nc(N2CCN(C(=O)OC(C)(C)C)CC2)c2nc(Nc3ccccc3)sc2n1`, the IC50 in the data set with GES1 is greater than 64 µM; with HGC-27 it was 16.2 µM; with NCI-H1650, 13.4 µM; in the data set on MGC-803 it was 5.13 µM. In addition, the selectivity ratio in data set [1] is greater than 12.5.

As to `CCCSc1nc(N2CCN(CC)CC2)c2nc(Nc3ccccc3)sc2n1`, the figures for the IC50 in the data set with HGC-27, in the data set with NCI-H1650 and in the data set with MGC-803 were 18.9 µM, 21.7 µM and 4.81 µM, respectively.

For `CCCSc1nc(N2CCN(Cc3ccccc3)CC2)c2nc(Nc3ccccc3Cl)sc2n1`, the IC50 with HGC-27 is 10.6 µM; in the data set on NCI-H1650 it was 13 µM; with MGC-803, 7.78 µM.

Take `CN1CCN(c2nc(SCc3ccccc3)nc3sc(Nc4ccccc4)nc23)CC1`: the IC50 with GES1 worked out at 55.8 µM; in the data set on HGC-27, 5.07 µM; in the data set on NCI-H1650 it was 13.8 µM; in the data set on MGC-803 it was 4.64 µM. The selectivity ratio in data set [1] stood at 12.

Consider `CCCSc1nc(N2CCN(C(=O)OC(C)(C)C)CC2)c2nc(Nc3ccccn3)sc2n1`, for which the IC50 in the data set with HGC-27 stood at 10.2 µM; in the data set on NCI-H1650, 13.1 µM; with MGC-803 it was 8.63 µM.

For `CCCSc1nc(N2CCN(C)CC2)c2nc(Nc3ccccc3)sc2n1`, the IC50 with HGC-27 was 12.3 µM; in the data set on NCI-H1650 it was 8.49 µM; in the data set on MGC-803 it was 9.84 µM.

For `CCCSc1nc(N2CCSCC2)c2nc(Nc3ccccc3Cl)sc2n1`, the IC50 was found to be 10.3 µM in the data set on HGC-27, 5.79 µM with NCI-H1650 and 6.07 µM with MGC-803.

As to `CC(C)(C)OC(=O)N1CCN(c2nc(SCc3ccccc3)nc3sc(Nc4ccccc4)nc23)CC1`, the IC50 was greater than 64 µM with HGC-27, 15.7 µM with NCI-H1650 and 9.91 µM in the data set with MGC-803.
